In ChEMBL document CHEMBL1143863, “N(G)-aminoguanidines from primary amines and the preparation of nitric oxide synthase inhibitors” (J Med Chem, 2008):

How the values were obtained:
[1] = molecular target: T1, Nitric oxide synthase, inducible (Homo sapiens, UniProt P35228); test: Binding affinity to truncated iNOS construct (1-490) by spectral assay
[2] = molecular target: T1, Nitric oxide synthase, inducible; test: Inhibition of full length iNOS by high-throughput oxymyoglobin assay
[3] = molecular target: T1, Nitric oxide synthase, inducible

T1 sequence (P35228 whole entry, the tested form may be a part): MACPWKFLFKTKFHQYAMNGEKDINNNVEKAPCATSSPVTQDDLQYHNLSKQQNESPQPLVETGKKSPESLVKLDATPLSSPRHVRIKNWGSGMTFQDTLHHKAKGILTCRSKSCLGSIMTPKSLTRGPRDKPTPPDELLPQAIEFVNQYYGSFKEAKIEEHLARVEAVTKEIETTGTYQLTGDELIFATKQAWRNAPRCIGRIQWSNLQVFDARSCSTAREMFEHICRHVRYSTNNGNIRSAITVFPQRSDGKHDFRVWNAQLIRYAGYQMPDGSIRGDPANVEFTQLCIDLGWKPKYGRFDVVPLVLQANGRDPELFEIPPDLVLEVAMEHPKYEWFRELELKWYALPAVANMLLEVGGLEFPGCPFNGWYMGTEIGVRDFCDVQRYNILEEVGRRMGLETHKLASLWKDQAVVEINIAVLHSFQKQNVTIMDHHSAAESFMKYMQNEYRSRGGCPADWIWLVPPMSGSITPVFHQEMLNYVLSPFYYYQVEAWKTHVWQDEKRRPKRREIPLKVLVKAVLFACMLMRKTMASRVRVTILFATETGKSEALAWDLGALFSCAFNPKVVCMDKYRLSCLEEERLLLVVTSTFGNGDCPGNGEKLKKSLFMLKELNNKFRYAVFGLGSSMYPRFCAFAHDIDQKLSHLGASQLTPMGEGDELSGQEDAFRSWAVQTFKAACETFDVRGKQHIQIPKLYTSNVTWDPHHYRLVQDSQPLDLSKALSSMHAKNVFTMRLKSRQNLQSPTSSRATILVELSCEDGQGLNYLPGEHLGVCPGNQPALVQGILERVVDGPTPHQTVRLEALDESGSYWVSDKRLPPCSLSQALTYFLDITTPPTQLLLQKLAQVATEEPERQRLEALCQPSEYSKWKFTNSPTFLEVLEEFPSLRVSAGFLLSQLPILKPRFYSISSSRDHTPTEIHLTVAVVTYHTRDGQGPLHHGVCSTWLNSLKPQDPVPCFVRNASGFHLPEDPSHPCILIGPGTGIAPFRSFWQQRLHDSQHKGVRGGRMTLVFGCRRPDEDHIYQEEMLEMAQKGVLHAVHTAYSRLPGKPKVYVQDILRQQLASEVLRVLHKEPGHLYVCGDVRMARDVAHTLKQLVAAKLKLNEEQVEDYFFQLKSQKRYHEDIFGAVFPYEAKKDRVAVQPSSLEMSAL

| Kd [1] [µM] | Ki [2] [µM] | SMILES | Kinact [3] [min⁻¹] |
| --- | --- | --- | --- |
| 40.4 | 10.5 | N/C(=N/CCC[C@H](N)C(=O)O)N(N)CC(F)(F)F | – |
| 10 | 34.1 | CN(N)/C(N)=N\CCC[C@H](N)C(=O)O | 0.39 |
| 29 | 16.4 | CN/N=C(\N)NCCC[C@H](N)C(=O)O | – |

| SMILES | Kd [1] [µM] | Ki [2] [µM] | Kinact [3] [min⁻¹] |
| --- | --- | --- | --- |
| N=C(N)NCCC[C@H](N)C(=O)O [ARGININE] | 7 | – | – |
| N/N=C(\N)NCCC[C@H](N)C(=O)O | 1.3 | 2.2 | 0.18 |
